One test concerns the target VEGFR-2 (Homo sapiens, UniProt P35968). The experiment in a line: ADP-Glo kinase inhibition assay, VEGFR-2. In kind it is biochemical. To be noted: Table 1, ATP 50 μM, read-out: VEGFR-2 inhibitory activity (IC50). The method, then:
(§1) Tyrosine kinase inhibition were tested by luminescent ADP-Glo^TM assay.
(§2) The kinase assay was performed in duplicate in a reaction mixture of final volume of 10 μL. […] The assay plate was incubated at 30 °C for 1 h. After the plate was cooled at room temperature for 5 min, 5 μL of ADP-Glo reagent was added into each well to stop the reaction and consume the remaining […] within 40 min. At the end, 10 μL of kinase detection reagent was added into the well and incubated for 30 min to produce a luminescence signal. […] The assay plate was incubated at 30 °C for 4 h. After the plate was cooled at room temperature for 5 min, 5 μL of ADP-Glo reagent was added into each well to stop the reaction and consume the remaining […] within 1 h. At the end, 10 μL of kinase detection reagent was added into the well and incubated for 30 min to produce a luminescence signal. The luminescence was read by VICTOR-X multi- label plate reader. The signal was correlated with the amount of […] present in the reaction and was […] with the kinase activity.

Another test concerns the target TIE-2 (Homo sapiens, UniProt Q02763). The experiment in a line: ADP-Glo kinase inhibition assay, TIE-2. Type of test: biochemical. To be noted: Table 1, ATP 50 μM, read-out: Tie-2 inhibitory activity (IC50). The method, then: as §1, §2
The next test has as its target T1, EphB4 (Homo sapiens, UniProt P54760).
T1 sequence (P54760 16-987): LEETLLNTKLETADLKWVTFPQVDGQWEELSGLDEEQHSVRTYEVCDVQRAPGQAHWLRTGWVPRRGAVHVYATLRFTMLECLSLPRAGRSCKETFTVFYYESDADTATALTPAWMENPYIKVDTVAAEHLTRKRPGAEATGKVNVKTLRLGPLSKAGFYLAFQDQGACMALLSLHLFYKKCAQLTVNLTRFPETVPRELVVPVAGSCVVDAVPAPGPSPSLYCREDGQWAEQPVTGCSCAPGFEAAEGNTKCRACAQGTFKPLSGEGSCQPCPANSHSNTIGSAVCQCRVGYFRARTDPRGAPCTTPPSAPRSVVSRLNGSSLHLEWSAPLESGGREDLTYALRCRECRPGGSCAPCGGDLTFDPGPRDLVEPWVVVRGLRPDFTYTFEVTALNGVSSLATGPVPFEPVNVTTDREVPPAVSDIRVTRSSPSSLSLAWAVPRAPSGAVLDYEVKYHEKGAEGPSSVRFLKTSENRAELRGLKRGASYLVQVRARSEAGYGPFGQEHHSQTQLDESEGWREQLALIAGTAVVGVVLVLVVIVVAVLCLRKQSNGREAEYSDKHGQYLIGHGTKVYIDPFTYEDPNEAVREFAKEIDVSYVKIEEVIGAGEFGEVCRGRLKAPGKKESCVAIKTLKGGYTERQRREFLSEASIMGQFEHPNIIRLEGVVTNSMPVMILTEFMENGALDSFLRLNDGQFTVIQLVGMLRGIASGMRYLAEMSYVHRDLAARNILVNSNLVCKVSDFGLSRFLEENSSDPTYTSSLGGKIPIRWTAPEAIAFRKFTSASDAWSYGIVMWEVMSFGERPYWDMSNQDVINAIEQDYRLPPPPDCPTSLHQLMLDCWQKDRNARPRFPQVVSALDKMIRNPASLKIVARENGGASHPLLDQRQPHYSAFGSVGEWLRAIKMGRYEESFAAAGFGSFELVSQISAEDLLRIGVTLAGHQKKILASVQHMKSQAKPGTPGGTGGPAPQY
The test can be described thus: ADP-Glo kinase inhibition assay, EphB4. In kind it is biochemical. To be noted: Table 1, ATP 50 μM, read-out: EphB4 inhibitory activity (IC50). The method, then: as §1, §2
(In general: ADP-Glo first removes unused ATP, then detects ADP through luciferase.)

The target in the next test is B-Raf (Homo sapiens, UniProt P15056). The test can be described thus: Kinase selectivity assay, B-Raf. In kind it is biochemical. To be noted: Table 3 selectivity profile.
The target of another test is FGFR-1 (Homo sapiens, UniProt P11362). The experiment in a line: Kinase selectivity assay, FGFR-1. To be noted: Table 3 selectivity profile. Type of test: biochemical.
Another test concerns the target EGFR (Homo sapiens, UniProt P00533). The test can be described thus: Kinase selectivity assay, EGFR. Type of test: biochemical. To be noted: Table 3 selectivity profile.
The next test addresses Src (Homo sapiens, UniProt P12931). The experiment in a line: Kinase selectivity assay, Src. Type of test: biochemical. The following applies: Table 3 selectivity profile.
A further test relates to EA.hy926. The test can be described thus: MTT anti-proliferative assay against human vascular endothelial cell. In kind it is cell-based. The following applies: EA.hy 926, 48 h treatment. The method, then: Growth inhibitory activities were evaluated against human vascular endothelial cell (EA.hy926)[25]. Thirteen selected title compounds were tested using MTT assay to assess cell proliferation. Exponentially growing cells were harvested and plated in 96-well plates at a concentration of […] cells/well, and then incubated for 24 h at 37 °C. The cells were treated with title compounds respectively at various concentrations for 48 h. Then, […] fresh MTT (5 mg/mL) was added to each well and incubated for 4 h at 37 °C. Supernatant was discarded, and […] DMSO was added to each well. Absorbance values were determined by a microplate reader (Bio-Rad Instruments) at 490 nm. The IC50 values were calculated according to inhibition ratios.
A general note: Formazan colour is commonly taken as a measure of viable cells.

Test [1] concerns mouse lung tissue blood vessels. The test can be described thus: Tissue model for angiogenesis (TMA), lung tissue vessel sprouting. The following applies: 15.6 μM; observed on the 5th day. The method, then:
A novel tissue model for angiogenesis that imitated new blood vessels formation in vivo had been established in the previous study.
Figure 8 Anti-angiogenesis potency of compound CDAU-2 in tissue model for angiogenesis (TMA). (A–F) the representative images of lung tissue blood vessels in the TMA on the 5th day; (A) the untreated control group; (B–F) lung tissue vessels in the CDAU-2 treated group; (B) 1.94 μM; (C) 3.87 μM; (D) 7.75 μM; (E) 15.6 μM; (F) 62.5 μM.
In brief, the mouse lung tissue was separated and cut into pieces (0.5–1.0 mm^3)[27]. Then pieces of lung tissue were placed onto 48-well plate coated with polymerized fibrinogen with thrombin. After consolidation, each group was incubated with 200 μL/well 1640 medium containing different concentrations of CDAU-2. Control groups were incubated with 2.5% DMSO or 1640 medium alone.

Some results are limits rather than exact numbers.

EGFR, sequence (P00533 25-1210, species assumed): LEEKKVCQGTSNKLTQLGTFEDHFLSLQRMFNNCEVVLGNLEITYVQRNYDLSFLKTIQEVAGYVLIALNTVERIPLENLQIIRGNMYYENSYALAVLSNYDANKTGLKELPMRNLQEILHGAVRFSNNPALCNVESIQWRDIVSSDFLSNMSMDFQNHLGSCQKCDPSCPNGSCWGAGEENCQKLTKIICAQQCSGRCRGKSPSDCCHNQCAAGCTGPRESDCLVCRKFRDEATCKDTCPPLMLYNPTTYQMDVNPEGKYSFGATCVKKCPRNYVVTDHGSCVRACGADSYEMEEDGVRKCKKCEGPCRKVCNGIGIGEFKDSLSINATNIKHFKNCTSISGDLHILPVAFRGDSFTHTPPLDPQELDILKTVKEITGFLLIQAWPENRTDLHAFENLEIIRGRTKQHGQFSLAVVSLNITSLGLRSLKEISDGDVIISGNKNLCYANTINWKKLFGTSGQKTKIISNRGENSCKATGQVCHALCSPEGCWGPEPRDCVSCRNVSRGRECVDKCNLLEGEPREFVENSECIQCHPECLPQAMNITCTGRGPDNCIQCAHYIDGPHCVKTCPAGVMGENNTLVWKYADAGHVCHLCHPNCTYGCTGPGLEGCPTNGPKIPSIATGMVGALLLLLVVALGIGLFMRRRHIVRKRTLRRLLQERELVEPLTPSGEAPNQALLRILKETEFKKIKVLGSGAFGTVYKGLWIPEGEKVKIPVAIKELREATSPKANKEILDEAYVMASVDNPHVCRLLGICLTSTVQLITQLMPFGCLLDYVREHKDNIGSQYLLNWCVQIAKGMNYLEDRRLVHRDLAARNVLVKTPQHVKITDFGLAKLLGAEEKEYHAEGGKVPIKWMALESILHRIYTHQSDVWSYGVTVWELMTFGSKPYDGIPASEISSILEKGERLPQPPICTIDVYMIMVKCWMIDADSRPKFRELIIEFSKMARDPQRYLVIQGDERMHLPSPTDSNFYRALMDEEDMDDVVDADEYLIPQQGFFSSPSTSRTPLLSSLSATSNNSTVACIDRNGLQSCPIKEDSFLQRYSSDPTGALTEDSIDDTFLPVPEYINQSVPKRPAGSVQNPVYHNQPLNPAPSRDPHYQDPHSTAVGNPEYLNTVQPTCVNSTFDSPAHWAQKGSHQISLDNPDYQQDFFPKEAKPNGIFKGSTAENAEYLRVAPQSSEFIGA
B-Raf, sequence (P15056 whole entry, species assumed): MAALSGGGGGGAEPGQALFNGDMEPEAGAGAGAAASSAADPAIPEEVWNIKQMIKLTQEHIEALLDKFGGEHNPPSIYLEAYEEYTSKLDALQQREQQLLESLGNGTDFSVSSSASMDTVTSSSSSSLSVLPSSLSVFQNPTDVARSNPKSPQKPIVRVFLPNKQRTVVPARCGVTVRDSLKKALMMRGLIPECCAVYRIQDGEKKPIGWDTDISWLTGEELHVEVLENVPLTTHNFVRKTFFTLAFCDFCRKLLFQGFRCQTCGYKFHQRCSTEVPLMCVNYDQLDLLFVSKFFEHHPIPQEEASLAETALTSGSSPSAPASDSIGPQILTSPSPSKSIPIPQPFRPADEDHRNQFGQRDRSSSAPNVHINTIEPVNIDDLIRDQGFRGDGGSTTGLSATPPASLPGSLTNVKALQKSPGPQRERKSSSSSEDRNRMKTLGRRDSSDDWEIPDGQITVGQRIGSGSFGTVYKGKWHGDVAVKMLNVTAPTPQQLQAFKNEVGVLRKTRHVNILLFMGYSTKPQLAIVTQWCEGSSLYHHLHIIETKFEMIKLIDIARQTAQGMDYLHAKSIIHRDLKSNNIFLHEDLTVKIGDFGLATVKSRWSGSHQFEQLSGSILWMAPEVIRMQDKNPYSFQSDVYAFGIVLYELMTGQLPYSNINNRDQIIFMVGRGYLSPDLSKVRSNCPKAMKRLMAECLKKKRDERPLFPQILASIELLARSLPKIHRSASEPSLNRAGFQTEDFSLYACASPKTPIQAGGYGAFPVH
TIE-2, sequence (Q02763 23-1124): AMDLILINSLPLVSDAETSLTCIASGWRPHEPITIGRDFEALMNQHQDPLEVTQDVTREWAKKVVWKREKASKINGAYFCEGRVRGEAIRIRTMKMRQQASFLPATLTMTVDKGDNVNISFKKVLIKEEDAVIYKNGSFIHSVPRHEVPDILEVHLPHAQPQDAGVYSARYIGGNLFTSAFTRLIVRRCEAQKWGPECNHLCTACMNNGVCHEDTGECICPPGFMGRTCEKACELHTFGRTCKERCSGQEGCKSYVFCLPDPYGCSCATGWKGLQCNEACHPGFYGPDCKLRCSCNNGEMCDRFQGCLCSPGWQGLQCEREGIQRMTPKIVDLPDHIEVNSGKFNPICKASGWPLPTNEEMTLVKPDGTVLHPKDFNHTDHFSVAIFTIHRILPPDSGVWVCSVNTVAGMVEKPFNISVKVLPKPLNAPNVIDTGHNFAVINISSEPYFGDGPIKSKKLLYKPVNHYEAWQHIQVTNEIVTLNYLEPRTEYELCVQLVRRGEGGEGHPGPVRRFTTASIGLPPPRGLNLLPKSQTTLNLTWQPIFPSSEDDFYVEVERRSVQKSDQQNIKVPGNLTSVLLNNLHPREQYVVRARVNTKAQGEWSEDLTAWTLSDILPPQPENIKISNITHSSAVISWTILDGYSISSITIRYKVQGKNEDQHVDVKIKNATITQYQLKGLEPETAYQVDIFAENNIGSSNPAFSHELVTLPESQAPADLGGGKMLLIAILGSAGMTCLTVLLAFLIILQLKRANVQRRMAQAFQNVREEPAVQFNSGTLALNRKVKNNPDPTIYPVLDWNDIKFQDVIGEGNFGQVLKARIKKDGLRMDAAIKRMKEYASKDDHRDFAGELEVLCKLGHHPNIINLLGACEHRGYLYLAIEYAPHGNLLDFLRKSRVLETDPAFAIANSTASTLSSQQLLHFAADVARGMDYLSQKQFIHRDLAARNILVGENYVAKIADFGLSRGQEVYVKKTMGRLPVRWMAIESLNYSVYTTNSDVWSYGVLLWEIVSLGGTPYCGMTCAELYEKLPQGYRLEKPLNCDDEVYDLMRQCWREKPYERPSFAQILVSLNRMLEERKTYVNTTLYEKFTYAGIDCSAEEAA
Src, sequence (P12931 whole entry, species assumed): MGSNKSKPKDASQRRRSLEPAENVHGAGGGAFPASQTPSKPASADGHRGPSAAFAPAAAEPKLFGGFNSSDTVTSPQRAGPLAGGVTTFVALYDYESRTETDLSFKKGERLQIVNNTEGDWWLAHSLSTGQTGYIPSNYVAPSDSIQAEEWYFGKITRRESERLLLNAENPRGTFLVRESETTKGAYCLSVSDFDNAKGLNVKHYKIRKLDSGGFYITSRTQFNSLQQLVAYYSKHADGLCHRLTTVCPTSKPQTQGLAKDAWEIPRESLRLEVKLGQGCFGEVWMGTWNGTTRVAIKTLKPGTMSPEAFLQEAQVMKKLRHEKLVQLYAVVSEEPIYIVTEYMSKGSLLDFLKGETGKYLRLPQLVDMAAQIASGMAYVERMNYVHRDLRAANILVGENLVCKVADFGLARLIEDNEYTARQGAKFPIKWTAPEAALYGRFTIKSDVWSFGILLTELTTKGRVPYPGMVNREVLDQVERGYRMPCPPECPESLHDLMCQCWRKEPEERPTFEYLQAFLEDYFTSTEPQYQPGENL
FGFR-1, sequence (P11362 22-822, species assumed): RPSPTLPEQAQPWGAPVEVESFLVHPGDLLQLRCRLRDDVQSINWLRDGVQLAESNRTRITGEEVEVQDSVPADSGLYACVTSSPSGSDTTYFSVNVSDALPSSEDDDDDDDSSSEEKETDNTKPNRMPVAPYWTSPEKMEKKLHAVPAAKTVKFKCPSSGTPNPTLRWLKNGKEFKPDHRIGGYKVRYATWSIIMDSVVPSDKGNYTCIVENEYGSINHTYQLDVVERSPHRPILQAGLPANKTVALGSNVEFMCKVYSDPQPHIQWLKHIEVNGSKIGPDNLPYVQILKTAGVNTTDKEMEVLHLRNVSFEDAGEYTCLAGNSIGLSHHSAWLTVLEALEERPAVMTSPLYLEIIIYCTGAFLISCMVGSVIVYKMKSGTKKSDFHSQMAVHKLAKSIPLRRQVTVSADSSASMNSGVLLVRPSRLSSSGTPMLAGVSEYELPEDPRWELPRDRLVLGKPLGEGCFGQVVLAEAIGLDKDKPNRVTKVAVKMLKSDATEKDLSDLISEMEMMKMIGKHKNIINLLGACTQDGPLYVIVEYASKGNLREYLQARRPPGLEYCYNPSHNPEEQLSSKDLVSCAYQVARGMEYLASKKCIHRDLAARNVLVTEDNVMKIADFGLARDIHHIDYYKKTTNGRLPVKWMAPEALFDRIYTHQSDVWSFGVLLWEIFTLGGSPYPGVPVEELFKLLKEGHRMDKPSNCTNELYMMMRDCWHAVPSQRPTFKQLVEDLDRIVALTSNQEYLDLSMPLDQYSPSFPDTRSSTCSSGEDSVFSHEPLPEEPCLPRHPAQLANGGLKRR

Turning to `O=C(Nc1ccc(-c2ccc(NC(=O)C3CC3)nc2)cc1)Nc1ccc(Cl)c(C(F)(F)F)c1` [CDAU-2], the IC50 – broadly, the concentration that inhibits the measured activity by half – came to 1.01 nM at VEGFR-2; 8.32 nM at TIE-2; 5.11 nM at EphB4; 34.6 nM at B-Raf; 317 nM at FGFR-1; 191 nM against EGFR. Further, the results for the 50% inhibitory concentration (IC50) on Src and in the test with EA.hy926 were > 500 nM and 14500 nM, respectively. Besides, in test [1], the “Anti-angiogenesis potency: inhibition of vessel outgrowth from lung tissue” value is given as “inhibited vessels outgrew from the periphery of the lung tissues evidently”.
